Entries after “also recorded” stand apart in the source; their conditions may differ.
Experiments:
IDO1 = target: T1, IDO1 (Homo sapiens, UniProt P14902); experiment: HeLa cell-based IDO1/kynurenine assay
T1 construct: a human cervical cancer cell line HeLa that endogenously expresses IDO1 upon IFN-γ treatment; endogenous in cells; host or cells: HeLa cells treated with human IFN-γ
Protocol: (§1) The main bioassays performed in the study, including HeLa cell-based IDO1/kynurenine assay, Western blot analysis, T cell proliferation and Treg cell differentiation experiments, were carried out as described previously.
It is well known that IDO1 is broadly expressed in human cancers and is induced by pro-inflammatory cytokines, such as interferon gamma (IFN-γ) and tumour necrosis factor alpha (TNF-α)[41]. Here we utilised a human cervical cancer cell line HeLa that endogenously expresses IDO1 upon IFN-γ treatment to evaluate the IDO1 inhibitory activity of the synthesised compounds by measuring kynurenine secreted into the media. […] Thus, we also employed this cellular assay to detect false positive IDO1 inhibitors and cytotoxic compounds by measuring HeLa cell viability. Clinical candidate navoximod was used as an assay control.

[1] = target: T2, IDO1 protein in HeLa cells (Homo sapiens, UniProt P14902); experiment: Cellular thermal shift assay (CETSA); type: binding; conditions: IFN-γ 100 ng/mL 24 h, compound 2 h, 43-70 °C, Western blot
T2 construct: a human cervical cancer cell line HeLa that endogenously expresses IDO1 upon IFN-γ treatment; endogenous in cells; host or cells: HeLa cells treated with human IFN-γ
T2 sequence (P14902 whole entry): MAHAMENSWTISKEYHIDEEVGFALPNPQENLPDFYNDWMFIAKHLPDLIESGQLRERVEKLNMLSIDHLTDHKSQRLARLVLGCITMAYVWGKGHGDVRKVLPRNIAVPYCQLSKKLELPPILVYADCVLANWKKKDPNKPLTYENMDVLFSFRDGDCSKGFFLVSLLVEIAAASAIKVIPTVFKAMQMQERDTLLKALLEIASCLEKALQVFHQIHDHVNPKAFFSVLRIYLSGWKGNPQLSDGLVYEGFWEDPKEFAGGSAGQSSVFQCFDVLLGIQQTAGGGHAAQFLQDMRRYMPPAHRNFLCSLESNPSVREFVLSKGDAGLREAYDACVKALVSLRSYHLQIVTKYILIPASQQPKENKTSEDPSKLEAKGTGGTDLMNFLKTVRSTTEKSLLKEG
Protocol: HeLa cells were seeded in 6-well culture plates at a density of 2 × 10^5 per well. On the next day, human IFN-γ (100 ng/mL) were added and incubated for 24 h, and then the cells were treated with 5d for 2 h. At the end of incubation, cells collected and subjected to CETSA assay. Briefly, incubated cells were equally divided into 10 parts, each part was heated for 3 min under different temperature (43, 46, 49, 52, 55, 58, 61, 64, 67, and 70 °C), and then the heated cells were kept at −80 °C for 12 h, then at room temperature for 5 min, and the process repeated one more time. After that, cell lysates were extracted by centrifugation at 20,000 × g, 20 min. Levels of IDO1 protein were assessed by Western blot analysis.
The cellular thermal shift assay (CETSA) is usually used to identify compounds and their potential targets. CESTA can detect the target engagement of drugs in a cellular context based on the biophysical principle of ligand-induced thermal stabilisation of target proteins. To this end, we further employed the CETSA assay to detect whether compound 5d could directly bind to the target protein IDO1 in HeLa cells.
Figure 6. Compound 5d could bind to IDO1 protein in HeLa cells. HeLa cells were treated with human IFN-γ (100 ng/mL) for 24 h, and then treated with 5d for 2 h. […] The levels of IDO1 protein were assessed by Western blot analysis.

IDO1 protein expression = experiment: Western blot of IDO1 protein expression in IFN-γ-treated HeLa cells; type: cell-based, human
Protocol: as §1
To exclude the possibility that these secondary sulphonamides inhibit IDO1 activity by down-regulating IDO1 expression, we utilised Western blot to measure the expression of IDO1 protein in HeLa cells treated with different compounds.
Figure 3. […] (B) The greyscale scanning statistical results of A. (C) HeLa cells were incubated with compound 5d (3, 10, 30 μM) for 24 h. (D) The greyscale scanning statistical results of C. (E) HeLa cells were incubated with compound 5d (3, 10, 30 μM) for 48 h. (F) The greyscale scanning statistical results of E. Data are presented as means ± SEM (n = 3).

[2] = tested on: naïve CD4+ T cells co-cultured with B16F1 melanoma cells; experiment: T cell proliferation in B16F1-T cell co-culture (MTT); type: cell-based, mouse; conditions: 18 μM
Protocol: as §1
T lymphocytes are exceedingly sensitive to low tryptophan levels. Overactivation of the kynurenine pathway by high IDO1 expression leads to local tryptophan depletion, which can suppress T cell proliferation by activating the GCN2 kinase pathway and eventually result in T cell anergy. Here, to determine whether secondary sulphonamides could rescue IDO1-mediated blockade of T cell proliferation, we used a co-culture of IDO1-expressing B16F1 melanoma cells with naïve CD4^+ T cells to mimic the tumour microenvironment. Given that melanoma is a highly immunogenic tumour and IDO1 constitutively expresses in melanoma cells, B16F1 murine melanoma cell lines that express IDO1 were then used to co-culture with T cells. Naïve CD4^+ T cells were isolated from spleens of C57BL/6 mice.
Figure 4. Compounds 5d and 8 g could promote the proliferation of T cells. Based on the B16F1-T cell co-culture system, use MTT assay to test T cells proliferation. The Navoximod and compounds were added to the system at the concentration of 1.5 and 18 μM. Data represent mean ± SEM (n = 3).

[3] = tested on: naïve CD4+ T cells co-cultured with B16F1 cells; experiment: FoxP3+ Treg cell differentiation in B16F1-T cell co-culture (flow cytometry); type: cell-based, mouse; conditions: 18 μM
Protocol: as §1
Besides causing local tryptophan depletion, high IDO1 expression can also accumulate metabolites of kynurenine pathway. The elevated metabolites can not only induce effector T cell death directly through their cytotoxicity, but also promote the differentiation of naïve CD4^+ T cells into CD4^+ FoxP3^+ Treg cells by activating the AHR pathway. As a highly immunosuppressive subset of CD4^+ T cells, FoxP3^+ Treg cells are critical to the maintenance of immune homeostasis and are involved in tumour immune escape, thereby contributing to tumour development and progression. Therefore, we also utilised co-culture of B16F1 cells with naïve CD4^+ T cells to test whether the synthesised compounds could suppress IDO1 mediated Treg cell differentiation.
Figure 5. Compounds 5d and 8 g inhibited Treg cell differentiation in the cell co-culture system. (A) After co-cultured with B16F1 cells, T cells were collected. Surface staining was performed with CD4^+ FTTC and CD25^+ PE for 30 min at 4 °C. The cells were fixed and permeabilized with fixation buffer and permeabilization wash buffer. The intracellular staining was performed with FoxP3^+ APC for 20 min. The cells were then analysed by flow cytometry analysis. (B) Statistical analysis of result A. Data are represented as ± SEM (n = 3). *p < 0.05, **p < 0.01 vs T + B16F1. TEXT PRINTED IN THE PICTURE: (A) Navoximod: 8.1% (T + B16F1; 1.5 μM) | (A) 8g: 7.8% (T + B16F1; 18 μM) | (A) 5d: 2.1% (T + B16F1; 18 μM)

T1 sequence (P14902 whole entry): as above

SMILES: C=CC(=O)Nc1ccc(S(=O)(=O)NCc2cccc(Cl)c2)cc1 [5d, N-(4-(N-(3-Chlorobenzyl)sulfamoyl)phenyl)acrylamide]
- IC50 (IDO1; HeLa cells, IFN-γ induced IDO1, kynurenine readout): 6.26 µM
- inhibition at 30 µM (IDO1; percentage inhibition at 30 μM, IFN-γ-treated HeLa cells, kynurenine in media): 91.1%
- thermal stability of IDO1 protein [1]: improve the thermal stability of IDO1 protein; also recorded: still maintained the protein stability at 55 °C
- expression of IDO1 protein (IDO1 protein expression; HeLa cells, 3, 10, 30 µM for 24 h or 48 h): did not affect IDO1 expression
- expression of IDO1 protein (IDO1 protein expression; HeLa cells, IFN-γ 100 ng/mL 24 h, then compounds at their IC50 concentrations for 24 h): did not influence IDO1 expression
- T cell proliferation [2]: significant augmentation on T cell activity; also recorded: better enhancement of T cell proliferation than navoximod
- FoxP3+ Treg cells (flow cytometry) [3]: 2.1%
- FoxP3+ Treg cell differentiation (in words) ([3]; Con A, 48 h): significantly reduce FoxP3^+ Treg cell differentiation; also recorded: returned to the initial level

From PMC7336998, “Discovery of secondary sulphonamides as IDO1 inhibitors with potent antitumour effects in vivo” (Journal of Enzyme Inhibition and Medicinal Chemistry, 2020)
